These results are taken from paper PMC8591608, “DNDI-6148: A Novel Benzoxaborole Preclinical Candidate for the Treatment of Visceral Leishmaniasis” (Journal of Medicinal Chemistry, 2021).

Series [1] can be described thus: PMM cytotoxicity assay. It counts as cell-based. The note with it: mouse, primary peritoneal mouse macrophages (PMM); for EC50 at 3 days: Table 2, geometric mean of at least three independent assays. As to the method:
(§1) Primary peritoneal mouse macrophages (PMM) were collected two days after peritoneal stimulation with a 2% potato starch suspension. MRC5SV2 cells (diploid human embryonic lung fibroblasts) were cultured in minimal essential medium (MEM) containing Earle’s salts, supplemented with L-glutamine, NaHCO3, and 5% inactivated fetal calf serum. All cultures and assays were conducted at 37 °C under an atmosphere of 5% CO2.
(§2) Assays were performed in sterile 96-well microtiter plates, each well containing 10 μL of the compound dilution and 190 μL of MRC5SV2 or PMM inoculum (3 × 10^4 cells/mL). Cell growth was compared to untreated controls (100% growth) and assay-media controls (0% growth). After three-day incubation, cell viability was assessed fluorometrically by adding resazurin (50 μL/well of a stock solution in phosphate buffer (50 μg/mL)), incubating for 4 h and measuring fluorescence (λex 550 nm, λem 590 nm). The results were expressed as a percentage reduction in cell growth compared to untreated control wells. […] Tamoxifen was included as the reference drug.

Series [2] has as its system Trypanosoma brucei. Further details: method as in PMID 21738803. Particulars: in vitro; read-out: EC50 against Trypanosoma brucei; cited from earlier work.
The test system of series [3] is L. infantum. Kind of series: Intramacrophage L. infantum assay. The format is cell-based. Particulars: Leishmania infantum; Table 2; geometric mean of at least three independent assays; read-out: intramacrophage L. infantum EC50. As for the experimental part: (§3) L. infantum (MHOM/MA/67/ITMAP263) and L. donovani (MHOM/ET/67/L82) were maintained in the golden (Syrian) hamster (Mesocricetus auratus). Ex vivo amastigotes were collected from the spleen of an infected donor hamster using two centrifugation purification steps: 230g for 10 min, keeping the supernatant layer, and 4100g for 30 min, keeping the pellet. The spleen parasite burden was assessed using the Stauber technique.[25] For in vitro assays, the inoculum was prepared in RPMI-1640 medium, supplemented with 200 mM L-glutamine, 16.5 mM NaHCO3, and 5% inactivated fetal calf serum. For the in vivo model, an infection inoculum containing 2 × 10^7 amastigotes/100 μL was prepared in phosphate-buffered saline (PBS).
(§4) The assay was performed in sterile 96-well microtiter plates, each well containing 10 μL of the compound dilution and 190 μL of the PMM/amastigote inoculum (3 × 10^4 cells/4.5 × 10^5 parasites per well). Parasite multiplication was compared to untreated infected controls (100% growth) and uninfected controls (0% growth). After five-day incubation, total parasite burdens were microscopically assessed after staining the cells with a 10% Giemsa solution. The results were expressed as a percentage reduction in parasite burden compared to untreated control wells. EC50 values were determined using an extended dose range (2-fold compound dilutions, 8-point concentration curve). Miltefosine was used as the reference drug.[26] For selected compounds, this assay format was also run using the L. donovani inoculum.

The test system of series [4] is L. donovani. Kind of series: Intramacrophage L. donovani assay. The format is cell-based. The note with it: Leishmania donovani; Table 2; geometric mean of at least three independent assays. As for the experimental part:
as §3, §4

Series [5] deals with wild-type L. donovani promastigotes. Description: Drug sensitivity, wild-type L. donovani promastigotes. The format is cell-based. Particulars: Leishmania donovani. As for the experimental part: (§5) The clonal L. donovani cell line LdBOB (derived from MHOM/SD/62/1S-CL2D) was grown as promastigotes at 28 °C, as described previously. Bloodstream form T. brucei MiTat 1.2 clone 221a and its derived subline, 2T1, were cultured at 37 °C in the presence of 5% CO2 in HMI9-T medium, as described previously. T. brucei cell lines overexpressing CPSF3 and overexpressing a mutated version of CPSF3 (Asn232His) were generated as part of a previous study and cultured as described.[19]
(§6) Drug sensitivity assays with wild-type and transgenic T. brucei and L. donovani cell lines were carried out as previously described.[31],[32]

In series [6] the test system is CPSF3 (Asn219His)-overexpressing L. donovani promastigotes. Description: Drug sensitivity, CPSF3 (Asn219His)-overexpressing L. donovani promastigotes. Particulars: for EC50: Leishmania donovani. The format is cell-based. As to the method:
as §5
(§7) L. donovaniCPSF3 gene (LdBPK_343210.1) was custom synthesized by GeneArt and ligated into the pIR1SAT vector via BglII restriction sites. Using the Q5 mutagenesis kit (NEB) and the pIR1SAT-LdCPSF3^WT construct as a template, mutations encoding A655C and Asn219His change to CPSF3^WT were introduced. Mutations were introduced using the specific primers 5′-GAGTACACGGCATCCGC-3′ and 5′-[…]-3′ and as per manufacturers’ instructions. Wild-type and mutated pIR1SAT constructs were digested with SwaI and transfected into L. donovani promastigotes, as previously described. Resistant clones were selected with nourseothricin (100 μg/mL), and two clones per transfection were selected for further study.
as §6

The subject of series [7] is CPSF3-overexpressing L. donovani promastigotes. Kind of series: Drug sensitivity, CPSF3-overexpressing L. donovani promastigotes. The note with it: Leishmania donovani. It counts as cell-based. As to the method:
as §5, §7, §6

The nature of series [8]: MRC5 cytotoxicity assay. It counts as cell-based. The note with it: human, MRC5SV2 cells (human embryonic lung fibroblasts); Table 4; geometric mean of at least two independent tests. As for the experimental part: as §1, §2
The test system of series [9] is L. infantum. Description: L. infantum hamster model of VL. It counts as in vivo. As to the method:
as §3
Female golden hamsters for the in vivo model of visceral leishmaniasis were purchased from Janvier, France (body weight 80–100 g). This study using laboratory rodents was carried out in strict accordance with all mandatory guidelines (EU directives, including the Revised Directive 2010/63/EU on the protection of Animals used for Scientific Purposes that came into force on 01/01/2013, and the declaration of Helsinki in its latest version) and was approved by the ethical committee of the University of Antwerp, Belgium (UA-ECD 2011-74). Female golden hamsters for the pharmacokinetic study were purchased from Vital River, Beijing, China. This study was conducted following institutional review and in accordance with institutional and national guidelines at WuXi AppTec (the Institutional Animal Care and Use Committee (IACUC)). Balb/c mice for the in vivo model of visceral leishmaniasis (LSHTM) were purchased from Charles River, U.K., and related studies were conducted under license PPL 70/8427 from the U.K. Home Office.
Female golden hamsters were randomly allocated to experimental groups of six animals each, based on body weight. At the start of the experiment (Day 0), each animal was infected with L. infantum or L. donovani inoculum, delivered by intracardial injection. Six hamsters were assigned to the vehicle-treated, infected control group. Six hamsters were assigned per group (1 group/compound) for the evaluation of compound and miltefosine. […] At Day 35 (10 days after the final oral dose), all animals were euthanized and autopsies were conducted. The study evaluated the following parameters. • 1. Adverse effects: all animals were observed daily for the occurrence/presence of adverse effects. • 2. Body weight: all animals were weighed twice per week to monitor general health. • 3. Parasite burden: amastigote burdens in each target organ (liver, spleen, and bone marrow) were determined at Day 35. The organs of individual animals were weighed (except for bone marrow). Impression smears were stained with Giemsa for microscopic examination of the total amastigote burden, defined as the mean number of amastigotes per cell multiplied by the number of cells counted (minimum 500 nuclei); the results were expressed as a percentage reduction in amastigote burden compared to vehicle-treated, infected control animals.

Series [10] is described as follows: Liver microsome stability, human. The format is in vitro ADME. The note with it: human liver microsomes, pH 7.4, Table 4, read-out: HLM Clint. As for the experimental part: Tests were performed by WuXi AppTec, China. Test compounds (at 1 μM) or positive controls (testosterone, propafenone, and diclofenac) were incubated at 37 °C with liver microsomes from Balb/c mouse, golden (Syrian) hamster, Sprague-Dawley rat, Beagle dog, or human in the presence of a NADPH regenerating system and phosphate buffer (100 mM, pH 7.4) at 0.4 or 0.8 mg/mL microsomal protein. The samples were removed at time intervals from 0 to 60, 90, or 120 min and immediately mixed with cold methanol supplemented or not with acid (3% formic acid) and centrifuged prior to analysis by LC-MS/MS using tolbutamide or propranolol as internal standards.
A general note: Liver microsomes are a subcellular fraction often used to study metabolism.

Regarding `CC1(C)OB(O)c2cc(NC(=O)c3ccc(F)cc3C(F)(F)F)ccc21` [Compound 1, acoziborole, reference compound], in [1], the EC50 (as a rule, the concentration at which the effect is half-maximal) at 3 days was greater than 64000 nM. Besides, in series [1] (supplement csv), the CC50 – broadly, the concentration that lowers cell viability or growth by half – at 3 days was greater than 64000 nM. Also, the EC50 was 795 nM in series [2]; greater than 64000 nM in [3]; 59000 nM in series [4]; 2500 ± 100 nM in series [5]; 11700 ± 400 nM in [6]; 2800 ± 100 nM in [7]. Further, the “fold reduction in susceptibility” value in series [6] (promastigotes overexpressing mutated CPSF3) is 5 fold.
In series [1], `O=C(Nc1ccc2c(c1)B(O)OC2)c1ccc(F)cc1C(F)(F)F` [Compound 3] showed a 50% effective concentration (EC50) at 3 days greater than 64000 nM. For the same compound, the 50% cytotoxic concentration (CC50) at 3 days in [1] (Table 4, geometric mean of at least two independent tests) is greater than 64000 nM; in series [8], greater than 64000 nM. Moreover, the EC50 in series [3] came to 2700 nM; in [4] it was 1200 nM; in series [5], 1200 ± 20 nM; in series [6], 4400 ± 200 nM; in series [7] it was 1400 ± 30 nM. Further, the “reduction in parasite burden, bone marrow” value in series [9] (25 mg/kg QD for 5 days) worked out at 81.6%; in [9] (50 mg/kg QD for 5 days) it was 91.2%; in series [9] (100 mg/kg QD for 5 days), 88.3%. For the same compound, the results for the “reduction in parasite burden, spleen” value in [9] (25 mg/kg QD for 5 days), in [9] (50 mg/kg QD for 5 days) and in [9] (100 mg/kg QD for 5 days) were 81.8%, 95.0% and 96.0%, respectively. Besides, the “reduction in parasite burden, liver” value amounted to 87.8% in series [9] (25 mg/kg QD for 5 days, vs vehicle-treated infected controls); 97.4% in [9] (50 mg/kg QD for 5 days); 98.6% in series [9] (100 mg/kg QD for 5 days). In addition, the microsomal CLint at 2 h, 1 µM in series [10] amounted to 0.8 µL/min/mg.
